Source: PMC5356834 (Oncotarget, 2016)

Tests used:
TOV-21G cells [1] = experiment: Scoring of interphase cells with abnormal nuclei; format: cell-based; conditions: 48 hours
Text: (§1) (B) The frequency of mitotic cells with multipolar spindles was scored in at least 50 cells from each treatment condition. Shown is the mean ± SD of three independent experiments. […] Microtubules and DNA were visualized by staining with anti-α-tubulin antibody (green) and DAPI (blue), respectively. The frequency of interphase cells with visually abnormal nuclei, including satellite nuclei and multinucleation, was scored in at least 100 cells per treatment condition. Shown is the mean ± SD of three independent experiments.
(§2) Cells grown on glass coverslips were fixed in 4% paraformaldehyde for 15 min, followed by permeabilization with 0.5% Triton X-100 in PBS for 5 min. The cells were then incubated with α-tubulin (DM1A) mouse monoclonal antibody (Cell Signaling Technology, Danvers, MA), γ-tubulin (GTU-88) mouse monoclonal antibody (Sigma-Aldrich, St. Louis, MO) or NuMA (GT3611) mouse monoclonal antibody (Thermo Scientific, Rockford, IL) followed by Alexa Fluor 488 or 546 conjugated secondary antibodies (Invitrogen, Carlsbad, CA). Images were obtained with a Zeiss AX10 microscope (Carl Zeiss Micro-Imaging, Inc., Jena, Germany) equipped with a 20 X, 40X, or 63 X objective and standard filter set.

TOV-21G cells [2] = experiment: Multipolar mitotic spindle scoring by NuMA and α-tubulin co-staining; format: cell-based; conditions: 24 hours
Text: as §1, §2
(A) Immunostaining for α-tubulin (green), NuMA
(red), and DNA (blue). (B) The frequency of mitotic cells with multipolar spindles was scored in at least 100 cells from each treatment
(§3) (1 picture or pasted object on this page, not shown here)

[3] = system: α-tubulin acetylation in A2780 and MDA-MB-231 cells; experiment: Immunoblotting of acetylated α-tubulin after combination treatment; format: cell-based; conditions: 48 hours
Experimental: A2780 and MDA-MB-231 cells were treated for 48 hours with the indicated concentrations of each drug and whole cell protein lysates were subjected to immunoblotting using antibodies for acetylated-α-tubulin and β-actin.
(§4) Lysates were sonicated 2 to 3 times for 30 sec in medium (Diagenode, Bioruptor 300).
(§5) For western blot analysis, equal amounts of protein were loaded and size separated on Bolt™ 4 to 12% Bis-Tris Plus Gels. Proteins were subsequently transferred onto polyvinylidene difluoride (PVDF) membrane using an iBlot® 2 Dry Blotting System (Invitrogen). Immunoblotting was carried out according to standard protocols with antibodies against histone H3 acetyl-lysine 56 (abcam), histone-H4, pantropic (Millipore), acetyl-α-tubulin (Sigma); and β-Actin (Sigma). Antigen-antibody complexes were detected using secondary antibodies conjugated with horseradish […] (HRP) and visualized using enhanced chemiluminescence (GE Healthcare; Piscataway, NJ).
For WES analysis, lysates were separated by an automated capillary-based electrophoresis system (WES, ProteinSimple, San Jose, CA). All procedures were performed according to the manufacturer's recommendations using the supplied reagents. […] The resulting data were analyzed using Compass software (ProteinSimple).

[4] = system: MDA-MB-231 breast cancer cells; experiment: IncuCyte live-cell proliferation assay; format: cell-based; conditions: for proliferation (absolute cell number): MDA-MB-231, single agent
TOV-21G cells [5] = experiment: Live cell time-lapse imaging of cell division; format: cell-based; conditions: ACY-241 2 μM plus paclitaxel 5 nM, up to 48 hours
Experimental: Time-lapse imaging was obtained on a Zeiss AX10 live-cell microscope coupled with a CO2 and temperature-maintenance system, and a time-lapse recording system supporting multi-location time series acquisition (SlideBook6 x64, Intelligent Imaging Innovations, Inc., Ringsby, CT). After staining with 10 nM Hoechst33342, TOV-21G cells were incubated in 10% CO2 at 37°C and time-lapse images were acquired at 2 min intervals up to 48 hours with a CoolSNAP HQ2 CCD camera (Photometrics, Tucson, AZ). […]
monitored by live cell time-lapse microscopy. (A) The number of observed mitotic cells, unresolved mitoses, and frequency of bipolar and multipolar division from resolved mitosis were assessed. (B) Fluorescent and matched phase-contrast time-lapse images of representative mitoses in TOV-21G cells treated with the drug combination. Numbers show elapsed time after drug treatment (hour:minute:second), the color of circles differentiates individual cells being monitored, and dashed circles indicate observation of cell death. Panels labeled with lower case letters (a-e) identify timepoints with matched phase contrast images below (a’-e’).
as §3

[6] = system: A2780, TOV-21G and MiaPaCa-2 cells; experiment: EdU / FxCycle flow cytometry cell cycle assessment in multiple cell lines (Figure 4B, 4C); format: cell-based
[7] = system: A2780, TOV-21G and MDA-MB-231 cells; experiment: MTS cell viability assay; format: cell-based; conditions: 72 h, range over A2780, TOV-21G and MDA-MB-231 cells, 3 days, read-out: single agent viability IC50
Experimental: CellTiter 96® AQueous One Solution; Promega; Madison, WI, USA) dye absorbance. Cells (A2780, TOV-21G, MDA-MB-231) from 72 hour cultures were pulsed with 5 μL of CellTiter 96® AQueous One Solution in each well. The 384-well plates were incubated at 37°C for 5 hours, and absorbance was read in triplicate at a wavelength of 490 nm (with background correction using readings at 650 nm) on a spectrophotometer (Molecular Devices Corp.; Sunnyvale, CA, USA). […] The IC50 for each agent in each cell line is indicated in the legend of each graph. Real-time kinetic trace graphs of (C) cell proliferation and (D) induction of apoptosis were generated in the MDA- MB-231 breast cancer cell line. […] The mean and SEM of three replicate samples are shown. […]

[8] = system: TOV-21G ovarian cancer cells; experiment: Multipolar mitotic spindle scoring by α-tubulin staining; format: cell-based; conditions: 24 hours; for frequency of multipolar spindle formation, combination with paclitaxel: HDAC6 inhibitor 2 μM plus paclitaxel 2 nM; for frequency of multipolar mitotic spindle formation, single agent: paclitaxel 2 nM, ACY-241 2 μM, ACY-1215 2 μM, control 3.1%
Experimental: as §2
for α-tubulin (red) and DNA (blue) identified mitotic cells with multipolar spindles. (B) The frequency of multipolar spindle formation in
M phase cells was scored in at least 50 cells per treatment condition.
as §3

[9] = system: histone H3 acetylation in A2780 ovarian cancer cells; experiment: Immunoblotting of acetylated histone H3 (H3K56) in A2780 cells; format: cell-based; conditions: 24 hour treatment
Experimental: as §4, §5

[10] = Tolerability and body weight in xenograft-bearing mice; conditions: for body weight change: MiaPaCa-2 model, combination treatment with paclitaxel; for tolerability in mice: dosed as a single agent and in combination with paclitaxel
MiaPaCa-2 xenografts = experiment: MiaPaCa-2 pancreatic cancer xenograft; format: in vivo, mice; conditions: MiaPaCa-2 xenograft, HDAC6 inhibitor 50 mg/kg IP plus paclitaxel 10 mg/kg
[11] = system: MDA-MB-231 breast cancer cells; experiment: IncuCyte Caspase 3/7 apoptosis assay; format: cell-based; conditions: for apoptosis (Caspase 3/7): MDA-MB-231, single agent
[12] = system: α-tubulin acetylation in A2780 ovarian cancer cells; experiment: Immunoblotting of acetylated α-tubulin in A2780 cells; format: cell-based
Experimental: as §4, §5

[13] = system: phospho-histone H3 (pH3) positive cells; experiment: Phospho-histone H3 / DNA content flow cytometry for M phase cells; format: cell-based; conditions: for pH3 positive cells (M phase): low dose 6 nM
Experimental: arrest. (A) Dual parameter phospho-histone H3 (y axis, M phase cells) and FxCycle Far Red (x axis, DNA content) staining indicate the […]
High dose treatment of paclitaxel (100 nM) served as a positive control for M phase arrest. (B) Phase contrast micrographs were taken at the indicated time points after treatment of the samples in panel (A).
as §3

TOV-21G xenografts = experiment: TOV-21G ovarian cancer xenograft; format: in vivo, mice; conditions: TOV-21G xenograft, HDAC6 inhibitor 50 mg/kg IP plus paclitaxel 10 mg/kg
A2780 xenografts = experiment: A2780 ovarian cancer xenograft; format: in vivo, mice; conditions: HDAC6 inhibitor 50 mg/kg IP plus paclitaxel 10 mg/kg
[14] = MDA-MB-231, relative to either single agent

SMILES: O=C(CCCCCCNC(=O)c1cnc(N(c2ccccc2)c2ccccc2Cl)nc1)NO [ACY-241]
- frequency of cells with visually abnormal nuclei, combination with paclitaxel (TOV-21G cells [1]): significantly increased the frequency of cells with visually abnormal nuclei
- frequency of multipolar spindle formation, combination with paclitaxel (TOV-21G cells [2]; NuMA/α-tubulin co-staining, p = 0.0047 vs paclitaxel): 51.5%
- frequency of multipolar spindle formation, combination with epothilone (TOV-21G cells [2]; epothilone 0.5 nM plus ACY-241): 51.3%
- α-tubulin hyperacetylation, combination with paclitaxel [3]: synergistic increase in α-tubulin hyperacetylation
- proliferation, combination with paclitaxel [4, 14]: significantly reduced proliferation
- proliferation (absolute cell number) ([4]; 10 μM): completely suppressed proliferation
- proliferation (absolute cell number) ([4]; doses up to 3 μM, 96 hours): modestly reduced proliferation
- frequency of multipolar cell division, combination with paclitaxel (TOV-21G cells [5]): increased the frequency of multipolar cell division compared to each single agent
- percentage of cells in S phase, combination with paclitaxel ([6]; A2780 and TOV-21G (3 days), MiaPaCa-2 (5 days)): significantly reduced the percentage of cells in S phase
- induction of cell death (SubG1), combination with paclitaxel ([6]; relative to control or single agent treatment): significantly increased induction of cell death
- IC50 [7]: 4.6 to 6.1 µM
- frequency of multipolar spindle formation, combination with paclitaxel [8]: 38.6%
- frequency of multipolar mitotic spindle formation, single agent [8]: 10.7%
- doses at which hyperacetylation of histone H3 was observed [9]: above 1 μM
- body weight change [10]: did not result in body weight loss
- tolerability in mice [10]: well tolerated
- suppression of tumor growth, combination with paclitaxel (MiaPaCa-2 xenografts): similarly significant efficacy
- apoptosis, combination with paclitaxel [11, 14]: enhanced apoptosis
- apoptosis (Caspase 3/7) ([11]; 10 μM): significant induction of apoptosis
- apoptosis (Caspase 3/7) ([11]; doses up to 3 μM, 96 hours): without inducing apoptosis
- hyperacetylation of α-tubulin ([12]; 24 hour treatment, 300 nM): increased hyperacetylation of α-tubulin
- α-tubulin hyperacetylation, dose dependence ([12]; range of concentrations, 24 hours): dose-dependent increase in α-tubulin hyperacetylation
- M phase arrest ([13]; 2 μM, single agent or in combination with paclitaxel): did not significantly increase M phase arrest

SMILES: C/C(=C\c1csc(C)n1)[C@@H]1C[C@@H]2O[C@]2(C)CCC[C@H](C)[C@H](O)[C@@H](C)C(=O)C(C)(C)[C@@H](O)CC(=O)O1 [epothilone, epothilone B, reference compound]
- frequency of multipolar mitotic spindle formation, single agent (TOV-21G cells [2]; 0.5 nM, control 0.9%): 29.9%

SMILES: CC(=O)O[C@H]1C(=O)[C@@]2(C)[C@H]([C@H](OC(=O)c3ccccc3)[C@]3(O)C[C@H](OC(=O)[C@H](O)[C@@H](NC(=O)c4ccccc4)c4ccccc4)C(C)=C1C3(C)C)[C@]1(OC(C)=O)CO[C@@H]1C[C@@H]2O [paclitaxel, reference compound]
- frequency of multipolar spindle formation, single agent (TOV-21G cells [2]; NuMA/α-tubulin co-staining (Figure 6B)): 30.4%
- proliferation (absolute cell number) ([4]; up to 2 nM): modestly reduced cell proliferation
- IC50 [7]: 0.0023 to 0.0032 µM
- frequency of multipolar mitotic spindle formation, single agent [8]: 15.2%
- apoptosis (Caspase 3/7) ([11]; up to 2 nM): did induce apoptosis after longer duration of exposure
- cell cycle arrest at M phase ([13]; high concentration 100 nM, 8 to 24 hours): induced cell cycle arrest at mitosis (M) phase
- pH3 positive cells (M phase) ([13]; 8 hours, DMSO […]): 14%
- pH3 positive cells (M phase) ([13]; 24 hours): 4.1%

SMILES: O=C(CCCCCCNC(=O)c1cnc(N(c2ccccc2)c2ccccc2)nc1)NO [ricolinostat]
- suppression of tumor growth, combination with paclitaxel (TOV-21G xenografts): significantly greater suppression of tumor growth relative to either single agent
- frequency of multipolar spindle formation, combination with paclitaxel [8]: 41.3%
- frequency of multipolar mitotic spindle formation, single agent [8]: 12.6%
- body weight change [10]: did not result in body weight loss
- tolerability in mice [10]: well tolerated
- suppression of tumor growth, combination with paclitaxel (MiaPaCa-2 xenografts): significantly greater suppression of tumor growth relative to either single agent
- suppression of tumor growth, combination with paclitaxel (A2780 xenografts): significantly greater suppression of tumor growth relative to either single agent
